“Also recorded” adds a separate entry of the source.

From patent publication US8337851B2, “Methods of monitoring the efficacy of anti-CD40 antibodies in treating a subject for a CD40-expressing cancer” (Novartis AG, priority 2005, dated 2012) come the findings set out here.

In one test the target is soluble CD40 (Homo sapiens, UniProt P25942). Put plainly: ELISA-type binding to soluble CD40. Conditions: ELISA-type assays. The text has this:
(§1) 2, 2000, and PCT International Application No. PCT/US01/30857, also titled “Human Anti-CD40 Antibodies,” filed Oct. 2, 2001, both of which are herein incorporated by reference in their entirety.

The test system of test [1] is B cells from normal human subjects. Put plainly: In vitro CD40 ligand-mediated proliferation of normal B cells. It is filed as cell-based.
Source text: as §1
(§2) 4, 2003, Nov. 26, 2003, and Apr. 27, 2004, and assigned U.S. Patent Application Nos. 60/517,337, 60/525,579, and 60/565,710, respectively, and International Patent Application No. PCT/US2004/037152, also entitled “Antagonist, Anti-CD40 Monoclonal Antibodies and Methods for Their Use,” filed Nov. 4, 2004; the contents of each of which are herein incorporated by reference in their entirety.

The test system of test [2] is primary cancer cells from NHL patients. Put plainly: ADCC against primary cancer cells. It is filed as cell-based, human. Conditions: in vitro.
Source text: as §2

The test system of test [3] is B-CLL cells from patients. Put plainly: Western blot of CD40L-mediated signaling (p-IKK α/β, p-ERK, p-Akt, p-p38) in B-CLL cells. It is filed as cell-based, human. Conditions: 10 μg/ml. The method, then: In these experiments, 1.0×10^6 B-CLL cells from patients were stimulated with 1 μg/ml sCD40L (Alexis Corporation, Bingham, Nottinghamshire, UK). […] Cells were collected at 0 and 20 minutes. Phosphorylated IKKα (Ser180) and IKK β (Ser 181) (p-IKK α/β; NFkB pathway), phosphorylated ERK (p-ERK), phosphorylated Akt (p-Akt), and phosphorylated p38 MAPK (p-p38) were detected in cell lysates by Western blot.

Test [4] has as its system B-CLL cells from patients. Put plainly: Western blot of apoptosis markers in B-CLL cells not stimulated with CD40L. It is filed as cell-based, human. Conditions: 10 μg/ml; 1, 4 and 24 hours; no CD40L. The method, then:
Cells were collected at 1, 4, and 24 hours. Western blot analysis with antibodies to cleaved PARP (apoptotic protein) and XIAP (anti-apoptotic protein) was conducted on cell lysates.

Test [5] deals with B-CLL cells from patients. Put plainly: RT-PCR timecourse of transcripts in B-CLL cells. Format: cell-based, human. Conditions: 10 μg/mL with sCD40L, vs IgG1. The method, then:
Cell pellets were collected at 0 hr (no CD40L), 1, 4 and 24 hr and lysed simultaneously at the end. RNA was isolated using the RNeasy kit, and cDNA was prepared using the ABI RT kit. Two-step RT-PCR was done with the genes shown in two separate reactions, based on TM of each set of oligos.

The subject of test [6] is IM-9 tumor cells (a human multiple myeloma cell line). Put plainly: Unstaged orthotopic IM-9 xenograft conditional survival model. It is filed as in vivo, SCID mice. Conditions: 0.1, 1 or 10 mg/kg i.p. once a week from one day after implantation.
A further test has as its system KMS-12-BM tumor. Put plainly: Human KMS-12-BM subcutaneous xenograft model. Format: in vivo, SCID mice. Conditions: 42 days post cell implantation. The method, then:
Female SCID mice were treated with 3Gy irradiation one day prior to implantation of tumor cells. On the day of implantation, cells were prepared at a concentration of 5×10^7 cells/ml in 50% matrigel. Cells were implanted subcutaneously over the right flank at 5×10^6 cells/100 μl/mouse. […] Antibodies were administered intraperitoneally once a week for 4 weeks. Bortezomib was administered intravenously twice a week for two weeks.
(In xenograft studies the graft and the host belong to different species.)

Another test relates to CLL cells. Put plainly: CD40L-induced cytokine secretion by CLL cells (Meso Scale Discovery). Conditions: CLL #1; 10 μg/ml, 24 hours; preliminary, n=1. Format: cell-based, human. The method, then:
Cells (1×10^5 cells per well) were cultured in a 96-well plate in the presence or absence of CD40L (CD40 transfected, formaldehyde fixed CHO cells, 2×10^5 per well). […] Production of hIL-6, hIL-8, hIL-10, hTNF-α, hGM-CSF, hIL-1b, hIL-12p70, MCP-1, and MIP-1β was measured by Meso Scale Discovery® multi-array system (Meso Scale Discovery, Gaithersburg, Md.).

The next test deals with normal human B cells. Put plainly: Western blot of survival and signaling markers in normal human B cells. Conditions: 10 μg/ml, 24 hr, 2 μg/ml rhsCD40L, vs hIgG1. Format: cell-based. An excerpt: Cells were lysed and whole cell lysates resolved by SDS-PAGE and Western blotting using antibodies specific to human cPARP, Mcl-1, Bcl-xl, p-Akt, and p-p38 MAPK. All membranes were stripped and re-probed for either β-actin or AKT or p38 MAPK total protein, as appropriate.
A general note: In western blotting, separated proteins are transferred to a membrane and probed.

The next test has as its system B-CLL cells. Put plainly: CellTiter-Glo viability of CLL patient PBMCs. It is filed as cell-based, human. Conditions: 72 hours, 10 μg/ml. The protocol: Cell viability was determined after 72 hours using the CellTiter-Glo® Luminescent Cell Viability Kit (Promega, Madison, Wis.), which measures cellular ATP, and expressed as Relative Luminescence Units (RLU). Percent blockade was calculated as follows: […]
(ATP-based viability assays read luminescence as a measure of living cells.)

The next test concerns primary B-CLL cells. Put plainly: Western blot of cPARP, Mcl-1, Bcl-xl in primary B-CLL cells. Format: cell-based, human. Conditions: 10 μg/ml with rhsCD40L. The method, then: Whole cell lysates were prepared in RIPA lysis buffer (1% Nonidet P-40, 0.5% sodium deoxycholate, 0.1% Sodium dodecylsulfate in 1× phosphate buffered saline, pH 7.2). 10-20 μg of protein per sample were resolved on a 10% Tris-Glycine gel and transferred to nitrocellulose membranes, and membranes were probed using mAbs specific to human cPARP, Mcl-1, or Bcl-xl. The membranes were stripped and re-probed for β-actin and developed using ECL.

Sequence of soluble CD40 (P25942 21-193 limits assumed): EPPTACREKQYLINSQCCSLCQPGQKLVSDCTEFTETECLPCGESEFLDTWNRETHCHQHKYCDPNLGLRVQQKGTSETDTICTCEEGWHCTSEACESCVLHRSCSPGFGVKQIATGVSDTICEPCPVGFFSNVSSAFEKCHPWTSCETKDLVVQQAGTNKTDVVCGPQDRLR

In the case of “CHIR-12.12: fully human anti-CD40 monoclonal antibody of the IgG1 isotype from hybridoma cell line 153.8E2.D10.D6.12.12 (ATCC PTA-5543)”, the “binding to soluble CD40” value with soluble CD40 is “bind soluble CD40”. Also, the “effect on proliferation of normal B cells” value in test [1] was “act as antagonist anti-CD40 antibodies; also recorded: inhibit in vitro CD40 ligand-mediated proliferation of normal B cells”. Further, in test [2], the “killing of primary cancer cells by ADCC” value is given as “kill primary cancer cells from NHL patients by ADCC”. The “phosphorylation of IKK α/β, ERK and Akt” value in test [3] (20 minutes, 1 μg/ml sCD40L, vs control IgG) is “significant inhibition of phosphorylation of IKK α/β, ERK, and Akt”. Moreover, the “p38 MAPK activation” value in [3] (samples with constitutively activated p38 MAPK) was “did not significantly inhibit p38 MAPK activation”. In addition, in [4], the “apoptosis without CD40L stimulation (cleaved PARP, XIAP)” value was “did not trigger additional apoptosis of B-CLL cells”. The “RNA expression of CD40, CD40L, VEGF, TRAF2 and TRAF3” value in [5] (1, 4, 24 hr) is given as “inhibition of RNA expression”. In addition, in test [5], the “RNA expression of IL-6” value is reported as “no transcriptional changes”; the “RNA expression of TRAF6 and Mcl-1” value is on record as “minor down-regulation”. In addition, the “survival of tumor-bearing mice” value in test [6] is “prolonged the survival of tumor-bearing mice”. The tumor volume reduction in the test with KMS-12-BM tumor (1 mg/kg i.p. once a week for 4 weeks, P>0.05) amounted to 32%. In addition, in the test with KMS-12-BM tumor (10 mg/kg i.p. once a week for 4 weeks, P<0.05), the tumor volume reduction worked out at 35%. Moreover, in the test with CLL cells, the “inhibition of CD40-ligand-induced MCP-1 secretion” value is recorded as 34.8 % inhibition, the “inhibition of CD40-ligand-induced hGM-CSF secretion” value was 86.5 % inhibition, the “inhibition of CD40-ligand-induced hIL-8 secretion” value is 91.0 % inhibition and the “inhibition of CD40-ligand-induced hIL-10 secretion” value stood at 99.6 % inhibition. Besides, in the test on CLL cells, the “inhibition of CD40-ligand-induced hTNF-α secretion” value is on record as 89.6 % inhibition. Further, in the test with normal human B cells, the “CD40L-mediated effects on cPARP, Mcl-1, Bcl-xl, p-Akt, p-p38” value is listed as “blocked these CD40L-mediated effects on normal B cells”. The “blockade of CD40L-promoted survival” value in the test with B-CLL cells is reported as “in each case, these effects were blocked”. Also, in the test with primary B-CLL cells, the “cPARP levels and Mcl-1 and Bcl-xl expression (Western blot)” value is “blocked the CD40L-mediated decrease of cPARP levels and CD40L-mediated increase of Mcl-1 and Bcl-xl expression”.
